Measurements as given in article PMC11312998, “Molecular Pro-Apoptotic Activities of Flavanone Derivatives in Cyclodextrin Complexes: New Implications for Anticancer Therapy” (International Journal of Molecular Sciences, 2024).

Legend:
Type in all cases: cell-based, human
HCC38 = assay: Nitric oxide (RNS) generation, DAF-FM diacetate probe; conditions: IC50 concentration, 24 h
Protocol: (§1) Diaminofluorescein-FM diacetate (DAF-FM diacetate, Invitrogen, Carlsbad, CA, USA), is a widely employed cell permeant fluorescent reagent for the detection and quantification of reactive nitrogen species (RNS), particularly nitric oxide (NO). […] However, upon reaction with NO, it undergoes a transformation that yields a highly fluorescent benzotriazole derivative (excitation/emission maxima: λex = 495, λem = 515 nm).
(§2) The cells were seeded in black 96-well fluorometric microplates at a density of 10 × 10^3 cells per well. […] After incubation with the compounds, the medium was removed, the cell monolayer in the wells was washed twice with HBSS (140 mM NaCl, 5 mM KCl, 0.8 mM MgCl2, 1.8 mM CaCl2, 1 mM Na2HPO4, 10 mM HEPES and 1% glucose) and 50 μL of DAF-FM diacetate solution in HBSS was added to each well (final probe concentration 5 μmol/L). Cells were incubated with the probe for 30 min in the dark in an incubator (37 °C). After incubation, the probe was removed and replaced with fresh HBSS buffer and then incubated for an additional 30 min to allow for complete de-esterification of the intra cellular diacetates. After this time, the fluorescence was measured. The measurement was performed at the following excitation and fluorescence emission wavelengths: λex = 495 nm/λem = 515 nm. Fluorescence was measured on a Perkin-Elmer LS-5B spectrofluorometer (MA, USA). Fluorescence intensity values for control cells were arbitrarily set as 100%. The results are presented as percentages of control cells calculated on the basis of a comparison of the fluorescence intensity ratio of test samples and controls (100%) (fluorescence of samples was calculated as Δf in relation to the control).

Hec-1-A [1] = assay: as above; conditions: IC50 concentration, 24 h
Protocol: as §1, §2

Hec-1-A [2] = assay: Plasma membrane fluidity, TMA-DPH fluorescence anisotropy; conditions: IC50 concentration, 24 h
Protocol: (§3) Changes in plasma membrane fluidity were determined by fluorescence spectroscopy and two fluorescent probes located at different depths of the lipid bilayer: TMA-DPH ((1-(4-Trimethylammoniumphenyl)-6-Phenyl-1,3,5-Hexatriene p-Toluene sulfonate, Sigma-Aldrich; St. Louis, MO, USA) and DAUDA (11-[5-(Dimethylamino)-1-naphthalenesulfonylamino] undecanoic acid, Sigma-Aldrich, St. Louis, MO, USA). TMA-DPH is incorporated in the superficial area of the outer monolayer, while DAUDA penetrates into the deeper hydrophobic area of the membrane. The fluorescence of the probes was measured on a Perkin-Elmer spectrofluorometer (Waltham, MA, USA) with an attachment for measuring fluorescence anisotropy with parallel and perpendicular positions of the polarizers.
(§4) Cells were seeded on sterile 35 mm dishes in numbers appropriate for a given cell line. […] After 24 h incubation, the cells were trypsinized and transferred to Eppendorf tubes (0.5 mL of suspension/sample). The cell suspension was centrifuged at 2500 rpm for 5 min at 4 °C. […] Fluorescence measurements were made on a Perkin-Elmer LS-5B spectrofluorometer (MA, USA) in an attachment with a polarizer, reading the fluorescence anisotropy at an excitation wavelength λex = 365 nm and emission wavelength λem = 425 nm (TMA-DPH), as well as excitation wavelength λex = 350 nm and emission wavelength λem = 420 nm (DAUDA).

RBCs = assay: Erythrocyte morphology, phase contrast microscopy; conditions: 100 µmol/L; 24 h, 37 °C
Protocol: The experiments on human blood were performed in accordance with Polish national guidelines, and the study protocols were approved by the Bioethics Committee of the Medical University of Lodz, Poland: approval no (RNN/104/20/KE). The blood samples were obtained from healthy donors at the Blood Donation Centre in Lodz. The procedure for […] for erythrotoxicity studies is given in a previous paper. The influence of the synthesized compounds, together with a reference compound on RBC membrane integrity, was performed by lysis assay, described elsewhere. Briefly, 2% RBC suspension in 0.9% NaCl was incubated at 37 °C for 24 h with the tested compounds at concentrations of 100 µmol/L, 50 µmol/L, 25 µmol/L, 10 µmol/L and 1 µmol/L. The samples were centrifuged at 3000 rpm for 10 min, and the absorbance of the supernatant was measured at 550 nm. The results are presented as a percentage of hemolysis where a sample containing 10 μL of 2.0% v/v Triton X-100 was regarded as a positive control contributing to 100% of hemolysis. A sample containing saline solution represented the spontaneous hemolysis of RBCs (control). The experiments were conducted using at least three different biological materials (n = 3). […] Additionally, erythrocyte morphology was evaluated using a phase contrast Opta-Tech inverted microscope at 400× magnification.

Ishikawa = assay: Plasma membrane fluidity, TMA-DPH fluorescence anisotropy; conditions: IC50 concentration, 24 h
Protocol: as §3, §4

O=C1/C(=C/c2ccccc2)COc2ccccc21 [Compound 1]
increase in nitric oxide production (DAF-FM) (HCC38): approximately 15%
increase in nitric oxide production (DAF-FM) (Hec-1-A [1]): approximately 20%

COc1cccc(/C=C2/C(=O)c3ccccc3OC2c2ccccc2)c1 (centres unmarked) [Compound 3]
increase in cell membrane fluidity (TMA-DPH) (Hec-1-A [2]): approximately 20%
RBC morphology (in words) (RBCs): appearance of single eryptocytes

O=C1/C(=C/c2ccccc2)C(c2ccccc2)Oc2ccccc21 (centres unmarked) [Compound 5]
increase in cell membrane fluidity (TMA-DPH) (Ishikawa): approximately 20%
